According to the NIST ThermoML archive (doi:10.1016/j.fluid.2005.07.017):

Settings: Liquid, Vibrating tube method

c1ccsc1 [thiophene]
Settings | mass density [kg/m3]
293.15 K, 101 kPa | 1063.59
303.15 K, 101 kPa | 1051.55
313.09 K, 1029 kPa | 1040.96
313.09 K, 1969 kPa | 1041.84
313.09 K, 2970 kPa | 1042.78
313.09 K, 3987 kPa | 1043.71
313.09 K, 5055 kPa | 1044.72
313.09 K, 5952 kPa | 1045.51
313.09 K, 6937 kPa | 1046.43
313.09 K, 8032 kPa | 1047.39
313.09 K, 9218 kPa | 1048.44
313.09 K, 10045 kPa | 1049.18
313.09 K, 11012 kPa | 1050.03
313.09 K, 12014 kPa | 1050.9
313.09 K, 12995 kPa | 1051.74
313.09 K, 13961 kPa | 1052.59
313.09 K, 14970 kPa | 1053.43
313.09 K, 15953 kPa | 1054.26
313.09 K, 17004 kPa | 1055.16
313.09 K, 18003 kPa | 1055.95
313.09 K, 18904 kPa | 1056.76
313.15 K, 101 kPa | 1039.32
323.01 K, 1047 kPa | 1028.97
323.01 K, 2059 kPa | 1029.98
323.01 K, 3070 kPa | 1031.02
323.01 K, 4047 kPa | 1031.99
323.01 K, 5002 kPa | 1032.9
323.01 K, 6005 kPa | 1033.9
323.01 K, 7068 kPa | 1034.92
323.01 K, 8021 kPa | 1035.81
323.01 K, 9013 kPa | 1036.76
323.01 K, 10005 kPa | 1037.67
323.01 K, 10991 kPa | 1038.62
323.01 K, 12034 kPa | 1039.58
323.01 K, 12977 kPa | 1040.44
323.01 K, 13999 kPa | 1041.38
323.01 K, 14991 kPa | 1042.26
323.01 K, 15995 kPa | 1043.17
323.01 K, 16998 kPa | 1044.03
323.01 K, 17983 kPa | 1044.93
323.01 K, 18951 kPa | 1045.78
323.15 K, 101 kPa | 1026.98
332.85 K, 1015 kPa | 1016.93
332.85 K, 2035 kPa | 1018
332.85 K, 3004 kPa | 1019.06
332.85 K, 3964 kPa | 1020.05
332.85 K, 4991 kPa | 1021.14
332.85 K, 6001 kPa | 1022.17
332.85 K, 7014 kPa | 1023.21
332.85 K, 7998 kPa | 1024.2
332.85 K, 9009 kPa | 1025.23
332.85 K, 9995 kPa | 1026.19
332.85 K, 10989 kPa | 1027.18
332.85 K, 12006 kPa | 1028.17
332.85 K, 13009 kPa | 1029.18
332.85 K, 13971 kPa | 1030.09
332.85 K, 15006 kPa | 1031.04
332.85 K, 15990 kPa | 1032.01
332.85 K, 17050 kPa | 1033.03
332.85 K, 17976 kPa | 1033.88
332.85 K, 19018 kPa | 1034.92
333.15 K, 101 kPa | 1014.58
342.77 K, 1039 kPa | 1004.75
342.77 K, 2072 kPa | 1005.93
342.77 K, 3033 kPa | 1007.02
342.77 K, 4023 kPa | 1008.17
342.77 K, 5027 kPa | 1009.26
342.77 K, 6033 kPa | 1010.36
342.77 K, 7008 kPa | 1011.44
342.77 K, 7998 kPa | 1012.5
342.77 K, 9005 kPa | 1013.59
342.77 K, 10000 kPa | 1014.65
342.77 K, 10963 kPa | 1015.65
342.77 K, 12009 kPa | 1016.72
342.77 K, 13023 kPa | 1017.82
342.77 K, 13928 kPa | 1018.74
342.77 K, 15009 kPa | 1019.83
342.77 K, 15998 kPa | 1020.79
342.77 K, 17025 kPa | 1021.8
342.77 K, 17995 kPa | 1022.8
342.77 K, 19013 kPa | 1023.79
342.77 K, 20001 kPa | 1024.73
343.15 K, 101 kPa | 1002.15
352.67 K, 1064 kPa | 992.39
352.67 K, 2003 kPa | 993.54
352.67 K, 3024 kPa | 994.79
352.67 K, 4003 kPa | 995.98
352.67 K, 5048 kPa | 997.22
352.67 K, 6013 kPa | 998.36
352.67 K, 7013 kPa | 999.51
352.67 K, 8050 kPa | 1000.73
352.67 K, 9018 kPa | 1001.82
352.67 K, 10003 kPa | 1002.93
352.67 K, 11003 kPa | 1004.07
352.67 K, 12004 kPa | 1005.16
352.67 K, 12998 kPa | 1006.25
352.67 K, 14005 kPa | 1007.34
352.67 K, 15038 kPa | 1008.46
352.67 K, 16006 kPa | 1009.49
352.67 K, 17027 kPa | 1010.58
352.67 K, 18001 kPa | 1011.6
352.67 K, 19031 kPa | 1012.65
352.67 K, 20017 kPa | 1013.74
353.15 K, 101 kPa | 989.76
362.51 K, 1007 kPa | 979.8
362.51 K, 2022 kPa | 981.13
362.51 K, 3029 kPa | 982.49
362.51 K, 4004 kPa | 983.74
362.51 K, 5006 kPa | 985.01
362.51 K, 6003 kPa | 986.27
362.51 K, 6999 kPa | 987.5
362.51 K, 7993 kPa | 988.73
362.51 K, 9007 kPa | 989.99
362.51 K, 9993 kPa | 991.16
362.51 K, 10997 kPa | 992.36
362.51 K, 11993 kPa | 993.56
362.51 K, 12838 kPa | 994.53
362.51 K, 14038 kPa | 995.94
362.51 K, 15044 kPa | 997.1
362.51 K, 16029 kPa | 998.18
362.51 K, 17006 kPa | 999.27
362.51 K, 18016 kPa | 1000.4
362.51 K, 18987 kPa | 1001.47
